{
  "source": "patent US12291494B2",
  "about": "“Methods of treating fibrosis” (Nogra Pharma Limited, priority 2012, dated 2025)",
  "key": {"α-SMA": {"system": "α-SMA", "experiment": "Liver gene expression by quantitative Real Time PCR: α-SMA", "assay_type": "in vivo, mice", "conditions": "liver mRNA, normalized to β-actin; CCl4 group 65.51 ± 22.24", "experimental": "The effect of administration of compound 34 (GED) and the specific CB2 agonist (JWH-133) was evaluated on the level of gene expression of cytokines (IL-1β, TNF-α) and genes involved in the mechanism of fibrosis by quantitative Real Time PCR.\nTotal RNA was isolated from livers using Rneasy kit (Macherey Nagel, Hoerdt, France) according to the manufacturer's instructions. RNA quantification was performed using spectrophotometry. After treatment at 37° C. for 30 min with 20-50 units of RNase-free DNase I (Roche Diagnostics Corporation, Indianapolis, IN, USA), oligo-dT primers (Roche Diagnostics Corporation, Indianapolis, USA) were used to synthesize single-stranded cDNA. mRNAs were quantified using SYBR green Master Mix (Applera, Courtaboeuf, France) with murine specific oligonucleotides (see Table 2) in a GeneAmp Abiprism 7000 (Applera, Courtaboeuf, France). In each assay, calibrated and no-template controls were included. Each sample was run in triplicate. SYBR green dye intensity was analyzed using the Abiprism 7000 SDS software (Applera, Courtaboeuf, France). All results were normalized to the unaffected housekeeping gene β-actin."}, "C57bl6 mice": {"system": "C57bl6 mice", "experiment": "DSS intestinal fibrosis study: level of fibrosis by Picrosirius red staining", "assay_type": "in vivo", "conditions": "colon; DSS vehicle 2.27±0.12, control 1.12±0.07", "experimental": "Samples of colon obtained were promptly fixed with 10% buffered formalin in PBS (pH 7.4) for 3 h, dehydrated in graded ethanol and embedded in low-temperature-fusion paraffin. Formalin-fixed colonic tissue was processed and 5 μm thick paraffin sections were stained with Picrosirius red staining for histological analysis. Pictures were obtained with a ×20 objective. Each section was analyzed blindly by 3 different experimenters for the quantification of the degree of fibrosis using a score from 0 to 4."}, "CTGF [1]": {"system": "CTGF", "experiment": "DSS intestinal fibrosis study: Western blot of colon, CTGF", "assay_type": "in vivo, mice", "conditions": "whole colon, OD normalized with GAPDH, expressed as percentage of control groups; DSS 115.1 ± 16.88; listed as GED", "experimental": "(§1) For the Western blot analysis, 0.5 cm of frozen colonic samples were homogenized in RIPA Buffer containing 50 mM Tris HCl pH 7.6, 150 mM NaCl, 1.5 mM MgCl2, 5 mM EDTA, 1% Triton-X and 10% Glycerol, supplemented with 100 mM Sodium Fluoride (NaF), 2 mM Sodium Orthovanadate (Na3VO4), 10 mM Sodium Pyrophosphate (NaPPi), 1 mM phenylmethanesulphone (PMSF) and a classical protease-inhibitor cocktail containing 10 μg/mL Leupeptin and Aprotinin.\nFor each sample, 30 μg of protein was separated by PAGE and electroblotted. Nitrocellulose membranes (100% pure) were incubated (according with a specific protocol for each antibody) with primary antibodies directed against CTGF, Collagen-I and GAPDH (purchased from Abcam, Cambridge, UK; 1:1000 for 2 h at RT), diluted in 5% non-fat milk in 0.1% TBS-t. […] Optical density of target bands was determined using a computer-assisted densitometer and the ImageJ public domain software (W. S., Rasband, ImageJ, U. S. National Institutes of Health, Bethesda, MD; http://rsb.info.nih.gov/ij/, 1997-2011). Tissue levels were expressed as units of Optical Density (OD) per quantity of total proteins, normalized with internal control GAPDH and the results were expressed as percentage of control groups."}, "[2]": {"system": "main markers of fibrosis (Collagen I-III, α-SMA, TGF-β1, Smad3, CTGF)", "experiment": "DSS chronic colitis (Ex. 7): immunohistochemistry of colon", "assay_type": "in vivo, mice", "conditions": "DSS+GED vs DSS, listed as GED", "experimental": "Tissue specimens from the colon, dissected and fixed in fresh 4% formaldehyde (FA)/PBS solution for 3 hours at room temperature, were dehydrated in a graded ethanol series, and embedded in low-temperature-fusion paraffin. 3-μm-thick sections were incubated in a solution of methanol and 3% hydrogen peroxide for 45 min.\nSamples were incubated overnight with specific antibodies against α-smooth muscle actin (α-SMA, Abcam), collagen types I-III (Abcam), TGF-β1 (Abcam), connective tissue growth factor (CTGF) (Abcam), pSmad3 and Smad3 (Cell Signaling), Smad7 (Imgenex) PPARγ (Cell Signaling). The samples were washed 5 min with PBS and incubated with streptavidin-biotin-peroxidase conjugated secondary antibody (Dako LSAB Corporation, cod K0675, Dako-Cytomation, Milano). After one wash in PBS for 10 min the sections are subject to incubation with 3,3-diaminobenzidine-tetrahydrochloride for 1-3 min. The counterstaining of nuclei was obtained by Hematoxilin Eosin. The specificity of immune reaction was effected keeping off the primary antibodies. Finally the samples were stained with hematoxylin of Mayer and observed under the Olympus BX51 Light Microscope (Olympus, Optical Co. Ltd., Tokyo, Japan)."}, "CTGF [3]": {"system": "CTGF", "experiment": "DSS chronic colitis (Ex. 7): Western blot, CTGF", "assay_type": "in vivo, mice", "conditions": "percentage of optical density vs control group, normalized with GAPDH; DSS 115.1%±16.88%", "experimental": "as §1, with “0.5” for “For the Western blot analysis, 0.5”, “were cut and mechanically” for “were”, “mMTrisHCl” for “mM Tris HCl”, “mMNaCl,” for “mM NaCl,”, “mMphenylmethanesulphone” for “mM phenylmethanesulphone”\n30 μg of protein for each sample were separated by PAGE and electroblotted. 100% pure Nitrocellulose membranes were incubated (according with a specific protocol for each antibody) with primary antibodies directed against TGF-β1, CTGF, α-SMA, Collagen-I and GAPDH (purchased from Abcam, Cambridge, UK; 1:1000 for 2 h at RT), and IL-13 (purchased from Antibodies online; 1:1000 for 2 h at RT) diluted in 5% non fat-milk in 0.1% TBS-t. […] Optical density of target bands was determined using a computer-assisted densitometer and the ImageJ public domain software (W. S., Rasband, ImageJ, U. S. National Institutes of Health, Bethesda, MD; http://rsb.info.nih.gov/ij/, 1997-2011). Tissue levels were expressed as units of Optical Density (OD) per quantity of total proteins, normalizing with internal control GAPDH and the results were expressed as percentage of control groups."}},
  "note": "Entries after “also recorded” stand apart in the source; their conditions may differ.",
  "data": [
    {"smiles": "COC(Cc1ccc(N)cc1)C(=O)O", "note": "(racemic) [Compound 34, (±)-2-methoxy-3-(4′-aminophenyl) propionic acid]", "values": [
      {"measurement": "α-SMA", "setting": "α-SMA", "result": "42.81 ± 14.81"},
      {"measurement": "level of fibrosis, score from 0 to 4 (Picrosirius red)", "setting": "C57bl6 mice", "result": "1.625±0.15"},
      {"measurement": "CTGF (Western blot)", "setting": "CTGF [1]", "result": "55.75±17.53"},
      {"measurement": "Collagen I-III and α-SMA (immunohistochemistry)", "setting": "[2]; FIG. 13A, 13B", "result": "marked reduction; also recorded: significant reduction"},
      {"measurement": "TGF-β1, Smad, CTGF (immunohistochemistry)", "setting": "[2]; FIG. 15 / data not shown", "result": "marked reduction; also recorded: significant reduction"},
      {"measurement": "CTGF expression level (Western blot)", "setting": "CTGF [3]", "result": "55.57%±17.53%"}
    ]}
  ]
}
